Measured values as given in patent US10017524B2, “Compound and pharmaceutical composition for neuropsychological disorder or malignant tumor” (KYOTO UNIVERSITY, priority 2012, dated 2018).

Legend:
[1] = system: phosphorylation of a threonine residue at position 212 of tau protein by DYRK1A protein; assay: Inhibitory activity on phosphorylation of tau protein in cultured cells expressing tau and DYRK1A (western blot, Thr212); type: cell-based; settings: compounds of 10 μM, phospho-Thr212 tau, cells expressing tau and DYRK1A
Protocol: The inhibitory activity of the compounds synthesized in the production examples on the phosphorylation of tau protein was evaluated by an evaluation system using the following cultured cells.
The cultured cells that can induce the expressions of tau protein and DYRK1A protein individually and that allow the phosphorylation of the tau protein to be evaluated depending on the activity of the DYRK1A protein were used in the evaluation system. […] Therefore, the inhibitory activity on the phosphorylation of the tau protein can be evaluated by inducing the expressions of both the tau protein and the DYRK1A protein, and evaluating the degree of phosphorylation of a threonine residue at position 212 of the tau protein.
The compounds 1, 4, and 6 to 9 (10 μM) were added to the evaluation system, and the phosphorylation of the tau protein was detected with the antibody that specifically recognizes the phosphorylation of a threonine residue at position 212 of the tau protein. […] The “control” represents the result of adding no compound.
The inhibitory activity of the compounds 1 and 2 on the phosphorylation of tau protein was evaluated in the same manner as the Experimental example 1.
The “control” represents the result of adding no compound.
The inhibitory activity of the compounds 3, 6, and 9 to 15 on the phosphorylation of tau protein was evaluated in the same manner as the experimental example 1. FIGS. 7 to 9 show an example of the results.

[2] = system: PC-9-GR-step lines (gefitinib-resistant sub-lines of PC-9); assay: Growth inhibition, microscopic observation; type: cell-based, human; settings: microscope
[3] = system: MDA-MB-468 human breast cancer cells (triple-negative); assay: Growth inhibition, adherent and non-adherent culture (Alamar Blue); type: cell-based; settings: MDA-MB-468, cells cultured to prevent adhering
Protocol: (§1) Specifically, the cells were seeded on a 24 Well plate, and the compounds at a predetermined concentration were added. After cultivation for 5 days, the number of cells was calculated by detecting the fluorescence intensity with Alamar Blue. The culture medium containing the compounds was replaced every day. FIGS. 10 to 12 show an example of the results.
(§2) In addition, the effect was also confirmed when the target cells were cultured to prevent them from adhering to each other.

[4] = system: MDA-MB-453 human breast cancer cells (triple-negative); assay: as above; type: cell-based; settings: MDA-MB-453, cells cultured to prevent adhering
Protocol: as §1, §2

[5] = system: retinoblastoma cell lines WERI; assay: Inhibition of growth of cancer cells (Alamar Blue); type: cell-based
Protocol: as §1

[6] = system: Down's syndrome-derived acute megakaryoblastic leukemia (AMKL) cells KPAM1; assay: Inhibition of growth of cancer cells (Alamar Blue); type: cell-based; settings: KPAM1, cultivation for 5 days
Protocol: as §1

[7] = system: human lung adenocarcinoma-derived cell lines (PC-9); assay: Growth inhibition, microscopic observation; type: cell-based; settings: PC-9 lines, microscope
[8] = system: PC-9-GR-high lines; assay: Growth inhibition, microscopic observation; type: cell-based, human; settings: microscope

CCN1/C(=C/C(C)=O)Sc2ccc3oc4ccccc4c3c21 [Compound 3, (Z)-1-[1-ethylbenzo[2,3]benzofuro[4,5-d]thiazol-2(1H)-ylidene]propan-2-one]
inhibitory effect on the phosphorylation of the tau protein [1]: inhibitory effect
apoptosis-inducing activity on the cancer cells [2]: excellent apoptosis-inducing activity
inhibitory effect on the anchorage-independent growth [3]: inhibitory effect
inhibitory effect on the anchorage-independent growth [4]: inhibitory effect
inhibitory effect on the growth of the cancer cells [5]: inhibitory effect
inhibitory effect on the growth of the cancer cells [6]: excellent inhibitory effect
apoptosis-inducing activity on the cancer cells [7]: excellent apoptosis-inducing activity
apoptosis-inducing activity on the cancer cells [8]: excellent apoptosis-inducing activity
